Data: publication PMC12209699, “Waxy‐ or Putty‐Like Materials as a Novel Drug Preparation for Synthetic Cannabinoid Receptor Agonists: Detection in Prisons and In Vitro Cannabinoid Receptor Activity” (Drug Testing and Analysis, 2024)
Read-outs that look alike come from different tables or passages of the source.

Columns and labels:
[1] = test system: CB1; details: ref [4], [60], cited from earlier work; for EC50: earlier in vitro data, read-out: EC 50 at CB1; for E max at CB1: normalized to CP55,940
[2] = biological target: CB1 receptor (Homo sapiens, UniProt P21554); assay: NanoBiT βarr2 recruitment bioassay at CB1 (HEK 293T cells stably expressing CB1‐βarr2); details: for E max at CB1: normalized to E max of CP55,940 (set at 100%)
Sequence of CB1 receptor (P21554 whole entry): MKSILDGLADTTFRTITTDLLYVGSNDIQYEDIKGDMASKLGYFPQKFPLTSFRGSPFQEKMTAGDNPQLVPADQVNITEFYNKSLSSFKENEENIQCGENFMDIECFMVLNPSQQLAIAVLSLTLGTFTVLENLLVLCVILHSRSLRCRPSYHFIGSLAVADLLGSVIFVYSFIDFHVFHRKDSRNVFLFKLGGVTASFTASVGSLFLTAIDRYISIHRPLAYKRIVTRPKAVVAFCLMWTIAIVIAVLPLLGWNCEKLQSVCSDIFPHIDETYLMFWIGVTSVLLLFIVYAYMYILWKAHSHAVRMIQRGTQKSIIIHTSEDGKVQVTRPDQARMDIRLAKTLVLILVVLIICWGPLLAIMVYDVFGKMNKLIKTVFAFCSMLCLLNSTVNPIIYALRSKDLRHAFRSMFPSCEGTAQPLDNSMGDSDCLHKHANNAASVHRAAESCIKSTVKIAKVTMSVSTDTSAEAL
Sequence of CB1 receptor (P32121 whole entry partner): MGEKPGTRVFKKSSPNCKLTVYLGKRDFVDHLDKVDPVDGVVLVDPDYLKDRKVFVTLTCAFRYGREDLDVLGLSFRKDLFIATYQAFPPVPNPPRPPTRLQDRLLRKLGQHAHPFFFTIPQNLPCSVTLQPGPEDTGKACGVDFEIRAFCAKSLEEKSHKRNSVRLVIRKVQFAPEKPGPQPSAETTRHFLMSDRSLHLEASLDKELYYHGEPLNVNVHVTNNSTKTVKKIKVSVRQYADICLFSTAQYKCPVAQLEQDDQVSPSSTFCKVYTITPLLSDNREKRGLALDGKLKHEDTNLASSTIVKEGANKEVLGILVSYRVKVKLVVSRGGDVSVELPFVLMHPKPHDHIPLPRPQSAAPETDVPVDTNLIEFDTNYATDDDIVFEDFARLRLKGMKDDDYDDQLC

[3] = biological target: CB2 receptor (Homo sapiens, UniProt P34972); assay: NanoBiT βarr2 recruitment bioassay at CB2 (HEK 293T cells stably expressing CB2‐βarr2); details: for E max at CB2: normalized to E max of CP55,940 (set at 100%)
Sequence of CB2 receptor (P34972 whole entry): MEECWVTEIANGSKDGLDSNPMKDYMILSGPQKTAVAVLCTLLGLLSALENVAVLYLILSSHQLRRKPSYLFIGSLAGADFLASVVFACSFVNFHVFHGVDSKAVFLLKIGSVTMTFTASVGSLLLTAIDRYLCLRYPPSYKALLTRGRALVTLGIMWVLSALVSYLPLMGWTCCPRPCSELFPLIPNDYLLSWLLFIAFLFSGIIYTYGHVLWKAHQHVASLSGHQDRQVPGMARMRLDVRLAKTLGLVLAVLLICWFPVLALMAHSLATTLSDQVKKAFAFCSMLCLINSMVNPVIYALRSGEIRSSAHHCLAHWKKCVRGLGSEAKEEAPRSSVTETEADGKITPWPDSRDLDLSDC
Sequence of CB2 receptor (P32121 whole entry partner): as the sequence (P32121 whole entry partner) above

| SMILES | EC50 [1] [nM] | E max at CB1 [1] [%] | EC50 [2] [nM] | E max at CB1 ([2]; interval in brackets) | EC50 [3] [nM] | E max at CB2 ([3]; interval in brackets) | EC50 ([2]; read-out: EC 50 at CB1, βarr2 recruitment, three‐parameter logistic fit, interval in brackets) [nM] | EC50 ([3]; read-out: EC 50 at CB2, βarr2 recruitment, three‐parameter logistic fit, interval in brackets) [nM] |
| --- | --- | --- | --- | --- | --- | --- | --- | --- |
| C=CCCCn1nc(C(=O)N[C@H](C(=O)OC)C(C)(C)C)c2ccccc21 [MDMB‐4en‐PINACA] | 1.88 | 679 | – | – | – | – | – | – |
| COC(=O)[C@@H](NC(=O)c1n[nH]c2ccccc12)C(C)(C)C [MDMB‐INACA] | – | – | 6810 | 268 (233–305) % | 55.2 | 150 (134–167) % | – | – |
| CCCCn1nc(C(=O)N[C@H](C(N)=O)C(C)(C)C)c2ccccc21 [ADB‐BUTINACA] | 19 | 728 | – | – | – | – | – | – |
| CCCCCn1cc(C(=O)c2cccc3ccccc23)c2ccccc21 [JWH‐018] | – | – | – | 342 (300–385) % | – | 71.9 (66–77.9) % | 18.8 | 5.9 |
